Results on 7 compounds are retold here after paper PMC10302047, “Structure–Activity Relationship Studies of Indolglyoxyl-Polyamine Conjugates as Antimicrobials and Antibiotic Potentiators” (Pharmaceuticals, 2023).

Molecules are shown by their SMILES. ≈ marks a conversion by molar mass, not a printed value. Entries after “also recorded” stand apart in the source; their conditions may differ. Where two headings read alike, the source gives them in different places. Marks after values point to notes of the source that are not given here.

Data set [1] deals with HEK293 (human embryonic kidney cells). Particulars: cited from earlier work.
In the next data set the test system is Cryptococcus neoformans. Further details: method as in PMID 30975502. Particulars: fungus Cryptococcus neoformans; ref [15]; cited from earlier work.
Data set [2] has as its system S. aureus ATCC 25923. Particulars: cited from earlier work; for MIC S. a: S. aureus ATCC 25923, ref Cadelis et al. [16].
In data set [3] the test system is P. aeruginosa ATCC 27853. The following applies: cited from earlier work; for Conc (µM) for Potentiation of doxycycline: doxycycline at 2 µg/mL (4.5 µM), P. aeruginosa ATCC 27853, ref Cadelis et al. [16].
In data set [4] the test system is rat skeletal myoblast cell line L6. Further details: method as in PMID 30975502. The following applies: ref [15], read-out: IC50 cytotoxicity; cited from earlier work.
Data set [5] deals with P. aeruginosa ATCC 27853. Kind of data set: Antimicrobial susceptibility (MIC), P. aeruginosa. The following applies: Pseudomonas aeruginosa, ATCC27853, mean (n = 3), read-out: MIC P. a. Format: cell-based. A digest of the protocol: (§1)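 MICs against E. coli ATCC 25922 and P. aeruginosa ATCC 27853 followed previously reported protocols. MRSA ATCC 43300 and C. albicans ATCC 90028 were tested by CO-ADD under its standard protocols.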

Another data set deals with MRSA ATCC 43300. Kind of data set: Antimicrobial susceptibility (MIC), MRSA. Format: cell-based. Particulars: Staphylococcus aureus; MRSA ATCC 43300; mean (n = 2); read-out: MIC MRSA. In a few lines:
as §1

In data set [6] the test system is P. aeruginosa ATCC 27853. Description: Antibiotic potentiation (MIC of antibiotics in the presence of synergizing compounds), P. aeruginosa. It is filed as cell-based, Pseudomonas aeruginosa. Particulars: for Conc (µM) for Potentiation of doxycycline: concentration required to restore doxycycline activity at 2 µg/mL (4.5 µM) against P. aeruginosa ATCC 27853.
Data set [7] deals with E. coli ATCC 25922. Description: Antimicrobial susceptibility (MIC), E. coli. It is filed as cell-based. The following applies: Escherichia coli, ATCC25922, mean (n = 3). A digest of the protocol:
as §1

In data set [8] the test system is C. albicans ATCC 90028. Kind of data set: Antifungal susceptibility (MIC), C. albicans. It is filed as cell-based. The following applies: Candida albicans, ATCC90028, mean (n = 2). A digest of the protocol:
as §1

Data set [9] concerns S. aureus ATCC 25923. Description: Antimicrobial susceptibility (MIC), S. aureus. It is filed as cell-based, Staphylococcus aureus. The following applies: Staphylococcus aureus, ATCC25923; S. aureus ATCC 25923; mean (n = 3).
In data set [10] the test system is HEK293 (human embryonic kidney cells). Kind of data set: Cytotoxicity assay HEK293. It is filed as cell-based. The following applies: mean (n = 2). The procedure:
(§2) Cytotoxicity assays were conducted according to previously reported protocols.

Data set [11] is described as follows: Cytotoxicity assay HEK293. Particulars: human, HEK293 cells, mean (n = 2), read-out: Cyto. IC50 (concentration of compound at 50% cytotoxicity). It is filed as cell-based, human. The procedure:
as §2

The test system of a further data set is human red blood cells. Kind of data set: Hemolytic assay. It is filed as cell-based. Particulars: mean (n = 2). The procedure: Hemolysis assays were conducted according to previously reported protocols.
For data set [12], the system named is E. coli ATCC 25922. Further details: method as in Cadelis et al. [16]. Particulars: ref Cadelis et al. [16]; cited from earlier work.
Data set [13] has as its system C. albicans ATCC 90028. Further details: method as in Cadelis et al. [16]. Particulars: ref Cadelis et al. [16]; cited from earlier work.
For data set [14], the system named is P. aeruginosa ATCC 27853. Further details: method as in Cadelis et al. [16]. Particulars: ref Cadelis et al. [16]; cited from earlier work.
Data set [15] deals with Klebsiella pneumoniae ST258. Kind of data set: Antibiotic potentiation, K. pneumoniae. It is filed as cell-based. The following applies: mean (n = 3). The procedure:
(§3) Antibiotic enhancing activities were determined according to previously reported protocols.

Another data set deals with A. baumannii AYE. Kind of data set: Antibiotic potentiation, A. baumannii. It is filed as cell-based, Acinetobacter baumannii. Particulars: mean (n = 3). The method, then: as §3
Data set [16] concerns E. coli ATCC 25922. Description: Antibiotic potentiation, E. coli. It is filed as cell-based, Escherichia coli. The following applies: mean (n = 3). The procedure: as §3
The mark [17] stands for this setting: HEK293, ref Cadelis et al. [16], read-out: Cyto. IC50 (concentration of compound at 50% cytotoxicity).

A word on the MIC: it is the lowest concentration found to suppress growth. On to `O=C(NCCCNCCCCNCCCNC(=O)C(=O)c1c[nH]c2cc(Br)ccc12)C(=O)c1c[nH]c2cc(Br)ccc12` [Compound 1], for which the IC50 is 5.1 µM in [1] (human embryonic kidney cell line HEK293, ref [15], read-out: IC50 cytotoxicity) and 7.7 µM in data set [4]. The MIC with Cryptococcus neoformans is reported as 1.1 µM (≈ 0.773 µg/mL); with S. aureus ATCC 25923 [2] (Staphylococcus aureus ATCC 25923, ref [15]), 6.25 µM (≈ 4.39 µg/mL). In addition, the “antibiotic enhancement in combination with doxycycline” value with P. aeruginosa ATCC 27853 [3] (Pseudomonas aeruginosa, result in words, ref [15]) is given as “strong antibiotic enhancement effect”.
`Cc1cccc2c(C(=O)C(=O)NCCCNCCCCCCCNCCCNC(=O)C(=O)c3c[nH]c4c(C)cccc34)c[nH]c12.O=C(O)C(F)(F)F.O=C(O)C(F)(F)F` [Compound 23b, N^1,N^7-Bis(3-(2-(7-methyl-1H-indol-3-yl)-2-oxoacetamido)propyl)heptane-1,7-diaminium 2,2,2-trifluoroacetate]: the MIC in the data set on P. aeruginosa ATCC 27853 [5] is over 240 µM; with MRSA ATCC 43300, at most 0.3 µM; in the data set with E. coli ATCC 25922 [7], 120 µM; against C. albicans ATCC 90028 [8] it was over 38 µM; against S. aureus ATCC 25923 [9], 14.8 µM. Besides, the “Conc (µM) for Potentiation of doxycycline” value (from here on “Conc (µM) for Potentiation”) with P. aeruginosa ATCC 27853 [6] is given as 240 µM. For the same compound, the “Cyto. IC50 (concentration of compound at 50% cytotoxicity)” value in data set [10] is recorded as “non-cytotoxic; also recorded: no detectable cytotoxicity”. Also, the IC50 in [11] was over 38 µM.
With `Cc1cccc2c(C(=O)C(=O)NCCCNCCCCCCCCNCCCNC(=O)C(=O)c3c[nH]c4c(C)cccc34)c[nH]c12.O=C(O)C(F)(F)F.O=C(O)C(F)(F)F` [Compound 23c, N^1,N^8-Bis(3-(2-(7-methyl-1H-indol-3-yl)-2-oxoacetamido)propyl)octane-1,8-diaminium 2,2,2-trifluoroacetate], the minimal inhibitory concentration (MIC) was over 230 µM with P. aeruginosa ATCC 27853 [5]; at most 0.29 µM in the data set on MRSA ATCC 43300; 29 µM in the data set with E. coli ATCC 25922 [7]; over 37 µM against C. albicans ATCC 90028 [8]; 7.3 µM against S. aureus ATCC 25923 [9]. For the same compound, in the data set on P. aeruginosa ATCC 27853 [6], the “Conc (µM) for Potentiation” value was 230 µM. In addition, the “Cyto. IC50 (concentration of compound at 50% cytotoxicity)” value in data set [10] is listed as “non-cytotoxic; also recorded: no detectable cytotoxicity”. The IC50 in data set [11] is over 37 µM.
`COc1ccc2[nH]cc(C(=O)C(=O)NCCCNCCCCNCCCNC(=O)C(=O)c3c[nH]c4ccc(OC)cc34)c2c1` [Compound 4]: the IC50 in data set [1] (setting [17]) is over 38 µM. The minimal inhibitory concentration (MIC) in the data set with MRSA ATCC 43300 is 38.4 µM (≈ 23.2 µg/mL). The “Hem. HC10 (concentration of compound at 10% hemolytic activity)” value in the data set with human red blood cells is over 38 µM. Further, the “MIC E. c” value with E. coli ATCC 25922 [12] was >200 ^h µM. For the same compound, the “MIC S. a” value with S. aureus ATCC 25923 [2] was 100 ^h µM. In addition, the “MIC C. a” value with C. albicans ATCC 90028 [13] was >38.4 ^h µM. For the same compound, the “MIC P. a” value with P. aeruginosa ATCC 27853 [14] is recorded as >200 ^h µM. Besides, the “Conc (µM) for Potentiation” value in the data set on P. aeruginosa ATCC 27853 [3] is given as 12.5 ^b µM.
Turning to `O=C(NCCCNCCCCCCNCCCNC(=O)C(=O)c1c[nH]c2c(F)cccc12)C(=O)c1c[nH]c2c(F)cccc12.O=C(O)C(F)(F)F.O=C(O)C(F)(F)F` [Compound 21a, N^1,N^6-Bis(3-(2-(7-fluoro-1H-indol-3-yl)-2-oxoacetamido)propyl)hexane-1,6-diaminium 2,2,2-trifluoroacetate], the minimal inhibitory concentration (MIC) was 240 µM in the data set on P. aeruginosa ATCC 27853 [5]; 19.1 µM in the data set on MRSA ATCC 43300; 240 µM with E. coli ATCC 25922 [7]; over 38 µM against C. albicans ATCC 90028 [8]; 7.5 µM against S. aureus ATCC 25923 [9]. Also, the “Concentration (µM) for Potentiation of erythromycin” value in the data set with P. aeruginosa ATCC 27853 [6] (P. aeruginosa ATCC 27853, erythromycin 2 µg/mL, mean (n = 3)) was 100 µM; in data set [15] (erythromycin 2 µg/mL), over 200 µM; in the data set with A. baumannii AYE (erythromycin 2 µg/mL) it was 100 µM; with E. coli ATCC 25922 [16] (erythromycin 2 µg/mL) it was 200 µM. For the same compound, the results for the “Concentration (µM) for Potentiation of chloramphenicol” value (in data set [15] (chloramphenicol 2 µg/mL); in the data set with A. baumannii AYE (chloramphenicol 2 µg/mL); in the data set with E. coli ATCC 25922 [16] (chloramphenicol 2 µg/mL)) were over 200 µM, 200 µM and over 200 µM, respectively. In addition, the entries for the “Concentration (µM) for Potentiation of doxycycline” value (in data set [15] (doxycycline 2 µg/mL); with A. baumannii AYE (doxycycline 2 µg/mL); with E. coli ATCC 25922 [16] (doxycycline 2 µg/mL)) were 200 µM, 12.5 µM and 1.56 µM, respectively. The results for the “Concentration (µM) for Potentiation of nalidixic acid” value (in data set [15] (nalidixic acid 2 µg/mL); with A. baumannii AYE (nalidixic acid 2 µg/mL); with E. coli ATCC 25922 [16] (nalidixic acid 2 µg/mL)) were over 200 µM, 200 µM and 200 µM, respectively. Also, in the data set on human red blood cells, the “Hem. HC10 (concentration of compound at 10% hemolytic activity)” value was >38 ^e µM. Moreover, the IC50 in data set [11] stood at 12 µM. In addition, the “Concentration (µM) for Potentiation, no antibiotic” value in the data set with A. baumannii AYE (no antibiotic) was determined as 100 µM.
For `COc1ccc2[nH]cc(C(=O)C(=O)NCCCNCCCCCCNCCCNC(=O)C(=O)c3c[nH]c4ccc(OC)cc34)c2c1.O=C(O)C(F)(F)F.O=C(O)C(F)(F)F` [Compound 19a, N^1,N^6-Bis(3-(2-(5-methoxy-1H-indol-3-yl)-2-oxoacetamido)propyl)hexane-1,6-diaminium 2,2,2-trifluoroacetate], the MIC in the data set on P. aeruginosa ATCC 27853 [5] is over 200 µM; in the data set on MRSA ATCC 43300 it was over 37 µM; with E. coli ATCC 25922 [7], over 200 µM; in the data set with C. albicans ATCC 90028 [8], over 37 µM; against S. aureus ATCC 25923 [9] it was 29 µM. Besides, the “Concentration (µM) for Potentiation of chloramphenicol” value in the data set on P. aeruginosa ATCC 27853 [6] (P. aeruginosa ATCC 27853, chloramphenicol 2 µg/mL, mean (n = 3)) is 58 µM. Further, in the data set on P. aeruginosa ATCC 27853 [6] (P. aeruginosa ATCC 27853, minocycline 2 µg/mL, mean (n = 3)), the “Concentration (µM) for Potentiation of minocycline” value was determined as 14.5 µM. In addition, in the data set with P. aeruginosa ATCC 27853 [6] (P. aeruginosa ATCC 27853, no antibiotic, mean (n = 3)), the “Concentration (µM) for Potentiation, no antibiotic” value is given as over 200 µM. The “Conc (µM) for Potentiation” value in the data set on P. aeruginosa ATCC 27853 [6] came out at 7.3 µM. Also, the “Cyto. IC50 (concentration of compound at 50% cytotoxicity)” value in data set [10] is given as “non-toxic”. Further, the IC50 in data set [11] was over 37 µM.
As for `COc1cccc2c(C(=O)C(=O)NCCCNCCCCNCCCNC(=O)C(=O)c3c[nH]c4c(OC)cccc34)c[nH]c12` [Compound 7], in [1] (setting [17]), the IC50 is 27 µM. Besides, in the data set on MRSA ATCC 43300, the MIC came out at 38.4 µM (≈ 23.2 µg/mL). Also, the “Hem. HC10 (concentration of compound at 10% hemolytic activity)” value in the data set with human red blood cells is listed as over 38 µM. Also, the “MIC E. c” value with E. coli ATCC 25922 [12] is >200 ^h µM. For the same compound, the “MIC S. a” value in the data set with S. aureus ATCC 25923 [2] is recorded as 15 ^h µM. In the data set with C. albicans ATCC 90028 [13], the “MIC C. a” value is recorded as 38.4 ^h µM. The “MIC P. a” value in the data set with P. aeruginosa ATCC 27853 [14] is >200 ^h µM. Further, the “Conc (µM) for Potentiation” value in the data set on P. aeruginosa ATCC 27853 [3] is listed as 3.75 ^b µM.
